This experiment concerns the target Prothrombin (Homo sapiens, UniProt P00734). Briefly: In vitro Inhibitory concentration against Thrombin.

Drawing on ChEMBL document CHEMBL1135139, “Solid-phase synthesis of thrombin inhibitors” (Bioorg Med Chem Lett, 2002), this text covers IC50 for one compound.

One may read the IC50 as the point on the concentration scale where inhibition reaches its midpoint.

The structures appear in SMILES notation.

On to `N=C(N)c1ccc(CNC(=O)[C@@H]2C=CCN2C(=O)[C@@H](CC2CCCCC2)NCC(=O)O)s1`, for which half-maximal inhibition (IC50) was put at 3.6 nM.
